# What was measured:
# [1] = system: 6-OHDA-lesioned cell model; settings: cited from earlier work
# [2] = system: brain cell systems; settings: cited from earlier work
# [3] = system: Caenorhabditis elegans; settings: in vivo; cited from earlier work
# [4] = in vivo; cited from earlier work
# [5] = in vivo; cited from earlier work; remark: listed apart in the source
# [6] = large doses, acute systemic administration; cited from earlier work
# [7] = co-treatment with pramipexole; cited from earlier work
# [8] = biological target: alpha-synuclein (Homo sapiens, UniProt P37840); settings: cited from earlier work
# [9] = system: nigral TH-positive neurons; settings: MPTP-treated mice, 20 mg/kg; cited from earlier work
# [10] = system: nigral dopamine neurons; settings: 6-OHDA mice, injection of 30 mg/kg; cited from earlier work
# [11] = system: rat corticostriatal slices; settings: 0.3, 1, 3 and 10 μM; cited from earlier work
# [12] = biological target: T1, A53T α-synuclein (Homo sapiens, UniProt P37840, A53T); settings: oral 40 mg/kg/day, cited from earlier work
# T1 construct: host or cells: rat brain in vivo, transduced with a viral vector
# [13] = system: nigrostriatal dopaminergic neurons; settings: chronic administration, compared with saline; cited from earlier work
# [14] = 25 mg-50 mg, alone or with levodopa; cited from earlier work
# [15] = Period 2 (with oral domperidone) versus Period 1 (pramipexole alone)
# Source text: The study is single center, single-blind study.
# To be enrolled in the study, participants must meet the following inclusion/exclusion key criteria:
# History of drug or other significant allergy. • 5.
# [16] = 5 mg/day of pramipexole, cited from earlier work
# [17] = system: dopaminergic neurons; settings: mouse PD model, cited from earlier work
# [18] = biological target: human wild-type alpha-synuclein (Homo sapiens, UniProt P37840); settings: in vitro, by H2O2 plus cytochrome c; cited from earlier work
# [19] = system: human neuroblastoma SH-SY5Y cells; settings: cited from earlier work
# [20] = doses approved for motor symptoms of PD; 535 PD patients; cited from earlier work
# [21] = 4.5 mg/day with levodopa, entcapone, selegiline and zonisamide; after switch from immediate-release to extended-release; cited from earlier work
smiles,measurement,setting,value
"CCC(C)(C)C(=O)O[C@H]1C[C@@H](C)C=C2C=C[C@H](C)[C@H](CC[C@@H]3C[C@@H](O)CC(=O)O3)[C@H]21 [simvastatin, (1S,3R,7S,8S,8aR)-8-{2-[(2R,4R)-4-hydroxy-6-oxotetrahydro-2H-pyran-2-yl]ethyl}-3,7-dimethyl-1,2,3,7,8,8a-hexahydronaphthalen-1-yl 2,2-dimethylbutanoate]",neuroprotection against dopaminergic neurodegeneration,[1],robust neuroprotection against dopaminergic neurodegeneration
same,protection against 6-hydroxydopamine (6-OHDA),[2],protect against the deleterious consequences of the dopaminergic neurotoxin 6-hydroxydopamine
"CNCCC(Oc1ccc(C(F)(F)F)cc1)c1ccccc1 (stereo not drawn) [fluoxetine, 1-methylamino-3-phenyl-3-[4-(trifluoromethyl)phenoxy]propane]",amyloid-β-induced paralysis,[3],significantly delay amyloid-β-induced paralysis
same,6-OHDA induced damage,[4],protect against
same,MPTP induced damage,[5],protect against
same,extracellular concentrations of norepinephrine and dopamine,[6],significant increase in extracellular concentrations of norepinephrine and dopamine
same,activity of pramipexole in the forced swimming test,[7],enhance the activity of pramipexole
"NS(=O)(=O)Cc1noc2ccccc12 [zonisamide, benzo[d]isoxazol-3-ylmethanesulfonamide]",synuclein oligomer formation / aggregation in vitro,[8],inhibits the in vitro oligomerization and aggregation of alpha-synuclein
same,loss of nigral TH-positive neurons,[9],reduced the loss of nigral TH-positive neurons
same,striatal dopamine depletion,[9],attenuating the associated striatal dopamine depletion
same,loss of nigral dopamine neurons,[10],prevented the loss of nigral dopamine neurons
same,rotenone-induced toxicity (loss of corticostriatal field potential amplitude),[11],significantly reduced the rotenone-induced toxicity
same,survival of nigrostriatal dopamine neurons,[12],no impact on the survival of nigrostriatal dopamine neurons
same,pace of degeneration,"[12]; four weeks after viral vector injection, versus control group",significantly delayed the pace of degeneration
same,survival of nigrostriatal dopaminergic neurons,[13],improved the survival of nigrostriatal dopaminergic neurons
same,motor symptoms,[14],improve motor symptoms
"CCCN[C@H]1CCc2nc(N)sc2C1 [pramipexole, (S)-6-propylamino-4,5,6,7-tetrahydro-1,3-benzothiazole-2-amine]",Maximum Tolerated Dose (MTD) of pramipexole,[15],higher than MTD during Period 1
same,synuclein oligomer formation / aggregation in vitro,[8],diminishes synuclein oligomer formation in vitro
same,patients with nausea,[16],76%
same,patients with vomiting,[16],39%
same,patients not able to complete the study,[16]; presumably intolerable GI adverse events,36%
same,immunoreactivity for alpha-synuclein,[17]; rotenone,reducing immunoreactivity for alpha-synuclein
same,toxic effects of rotenone on dopaminergic neurons,[17],inhibits the toxic effects of rotenone on dopaminergic neurons
same,oligomerization of human wild-type alpha-synuclein,[18],decreases the in vitro oligomerization of human wild-type alpha-synuclein
same,aggregation of alpha-synuclein,[19],inhibit the aggregation of alpha-synuclein
same,neuroprotective (disease modifying) activity,[20],"failed to evidence neuroprotective (i.e., disease modifying) activity"
same,hallucinations,[21],induce hallucinations

# From US20220000854A1 (CHASE THERAPEUTICS CORPORATION, priority 2018, published 2022)
